US20250313535A1, “ALPHA 4 BETA 7 INTEGRIN MODULATORS AND USES THEREOF” (DICE MOLECULES SV, INC., priority 2022, published 2025)
Read-outs that look alike come from different tables or passages of the source.

Columns and labels:
α4β7 integrin = α4β7 integrin (Homo sapiens (Human), UniProt P13612+P26010); assay: Integrin Adhesion Assay: Protocol 4 (MAdCAM-coated plate, RPMI-8866 cells with stable LOF mutation of the ITGB1 gene); type: cell-based
Summary of the method: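 RPMI-8866 cells with CRISPR/Cas9 knockout of ITGB1 (2×10^6/mL) were added to MAdCAM-coated wells with compound (1% DMSO) in HEPES/NaCl buffer with 1 mM MnCl2, 0.1 mM CaCl2 and 1% BSA, then incubated 1 h at 37 °C. After four washes, adherent cells were quantified by CellTiter-Glo luminescence. Percent inhibition versus DMSO and control compound was fitted to 4-parameter curves.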

α4β1 integrin = α4β1 integrin (Homo sapiens (Human), UniProt P05556+P13612); assay: Integrin Adhesion Assay: Protocol 5 (VCAM-coated plate, RPMI-8866 cells with stable LOF mutation of the ITGB7 gene); type: cell-based
Summary of the method: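 RPMI-8866 B cells with CRISPR/Cas9 ITGB7 knockout (clonal, verified by flow cytometry) adhered to VCAM-coated wells for 1 h at 37° C in HEPES/NaCl buffer with 1 mM MnCl2, 0.1 mM CaCl2, 1% BSA, 1% DMSO. Bound cells quantified by CellTiter-Glo luminescence after washing; % inhibition versus DMSO and control, 4-parameter fit.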

[1] = Protocol 4, RPMI-8866 cells with LOF mutation of ITGB1, MAdCAM, read-out: Mean IC50 α4β7 KO
[2] = Protocol 5, RPMI-8866 cells with LOF mutation of ITGB7, VCAM, read-out: Mean IC50 α4β1 KO
[3] = RPMI-8866 cells with stable LOF mutation of the ITGB1 gene, read-out: Mean IC50 α4β7 KO^a
[4] = RPMI-8866 cells with stable LOF mutation of the ITGB7 gene, read-out: Mean IC50 α4β1 KO^b

Chain of α4β1 integrin (P13612 34-1032): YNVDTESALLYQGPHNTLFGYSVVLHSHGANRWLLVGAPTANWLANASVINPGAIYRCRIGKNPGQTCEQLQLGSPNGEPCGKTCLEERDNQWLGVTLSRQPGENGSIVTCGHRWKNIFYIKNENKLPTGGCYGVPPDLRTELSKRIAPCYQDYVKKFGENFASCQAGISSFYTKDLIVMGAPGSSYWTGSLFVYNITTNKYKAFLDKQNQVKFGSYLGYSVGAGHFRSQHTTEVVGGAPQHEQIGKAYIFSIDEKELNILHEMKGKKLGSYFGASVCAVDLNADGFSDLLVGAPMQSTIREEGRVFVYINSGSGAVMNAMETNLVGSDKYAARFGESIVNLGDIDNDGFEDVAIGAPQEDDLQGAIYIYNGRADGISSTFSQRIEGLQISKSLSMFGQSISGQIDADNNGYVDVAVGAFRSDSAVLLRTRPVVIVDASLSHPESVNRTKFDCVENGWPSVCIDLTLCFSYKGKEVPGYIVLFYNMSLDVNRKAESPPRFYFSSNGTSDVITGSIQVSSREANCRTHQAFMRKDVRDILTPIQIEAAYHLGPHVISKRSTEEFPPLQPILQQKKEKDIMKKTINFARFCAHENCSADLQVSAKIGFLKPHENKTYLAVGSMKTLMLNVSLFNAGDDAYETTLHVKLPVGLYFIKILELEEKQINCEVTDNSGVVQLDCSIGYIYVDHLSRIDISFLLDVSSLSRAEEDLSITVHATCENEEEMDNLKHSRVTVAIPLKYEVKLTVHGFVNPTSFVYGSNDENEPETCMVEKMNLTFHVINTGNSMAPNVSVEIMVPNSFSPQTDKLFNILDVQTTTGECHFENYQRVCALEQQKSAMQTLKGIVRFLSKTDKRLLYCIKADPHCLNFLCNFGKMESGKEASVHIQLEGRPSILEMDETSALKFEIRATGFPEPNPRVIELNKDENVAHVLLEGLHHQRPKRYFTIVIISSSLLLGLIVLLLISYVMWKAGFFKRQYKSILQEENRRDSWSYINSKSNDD
Chain of α4β1 integrin (P05556 21-798): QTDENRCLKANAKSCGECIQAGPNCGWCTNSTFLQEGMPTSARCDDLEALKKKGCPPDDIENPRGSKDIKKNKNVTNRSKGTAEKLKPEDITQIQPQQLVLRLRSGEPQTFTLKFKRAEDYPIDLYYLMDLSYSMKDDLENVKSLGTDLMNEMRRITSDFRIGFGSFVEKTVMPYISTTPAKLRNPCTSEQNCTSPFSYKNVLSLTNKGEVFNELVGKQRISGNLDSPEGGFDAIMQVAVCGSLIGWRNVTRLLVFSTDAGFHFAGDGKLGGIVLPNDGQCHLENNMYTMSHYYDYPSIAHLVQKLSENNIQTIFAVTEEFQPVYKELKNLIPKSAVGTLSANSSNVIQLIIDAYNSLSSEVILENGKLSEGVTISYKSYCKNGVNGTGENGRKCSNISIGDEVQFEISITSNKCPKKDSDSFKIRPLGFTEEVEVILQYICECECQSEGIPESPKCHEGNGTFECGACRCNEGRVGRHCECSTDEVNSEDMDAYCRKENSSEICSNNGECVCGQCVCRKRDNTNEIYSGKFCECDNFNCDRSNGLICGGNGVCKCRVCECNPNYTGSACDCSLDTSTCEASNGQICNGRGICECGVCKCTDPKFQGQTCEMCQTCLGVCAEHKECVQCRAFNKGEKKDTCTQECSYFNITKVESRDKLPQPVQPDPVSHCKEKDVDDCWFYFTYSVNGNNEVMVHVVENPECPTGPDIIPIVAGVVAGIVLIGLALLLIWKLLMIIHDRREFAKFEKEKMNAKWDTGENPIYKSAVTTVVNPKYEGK
Chain of α4β7 integrin (P13612 34-1032): as the sequence (P13612 34-1032) above
Chain of α4β7 integrin (P26010 20-798): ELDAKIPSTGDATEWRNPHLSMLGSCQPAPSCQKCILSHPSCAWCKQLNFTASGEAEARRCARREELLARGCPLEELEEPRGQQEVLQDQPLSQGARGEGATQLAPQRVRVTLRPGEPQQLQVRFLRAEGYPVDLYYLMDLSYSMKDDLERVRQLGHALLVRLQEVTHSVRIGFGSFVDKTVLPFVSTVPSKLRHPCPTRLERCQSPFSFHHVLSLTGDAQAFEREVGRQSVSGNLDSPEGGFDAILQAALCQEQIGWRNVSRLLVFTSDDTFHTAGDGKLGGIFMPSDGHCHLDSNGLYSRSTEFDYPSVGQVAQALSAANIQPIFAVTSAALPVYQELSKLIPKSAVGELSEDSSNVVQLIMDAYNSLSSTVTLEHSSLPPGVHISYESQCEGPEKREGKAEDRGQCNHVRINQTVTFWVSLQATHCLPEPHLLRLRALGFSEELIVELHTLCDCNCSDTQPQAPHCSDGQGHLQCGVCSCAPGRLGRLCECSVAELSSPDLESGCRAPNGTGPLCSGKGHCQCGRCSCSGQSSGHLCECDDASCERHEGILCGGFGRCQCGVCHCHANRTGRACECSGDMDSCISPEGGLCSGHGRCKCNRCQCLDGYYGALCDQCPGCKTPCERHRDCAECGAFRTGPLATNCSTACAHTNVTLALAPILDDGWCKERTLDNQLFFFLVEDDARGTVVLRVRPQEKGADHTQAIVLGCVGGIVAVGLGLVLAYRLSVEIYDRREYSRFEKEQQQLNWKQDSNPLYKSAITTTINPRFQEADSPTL

Compound	IC50 (α4β7 integrin; [1]) [µM]	IC50 (α4β1 integrin; [2]) [µM]	IC50 (α4β7 integrin; [3]) [µM]	IC50 (α4β1 integrin; [4]) [µM]
Cn1c(=O)c(-c2cccc3c(C[C@H](NC(=O)C4(C(F)(F)F)CCN(CC(F)(F)F)CC4)C(=O)O)cccc23)c(C(F)(F)F)c2cc(CN3CCC(c4ccccc4)CC3)ccc21 [Compound 837]	0.01 to 0.1	0.1 to 1		
COc1ccc(CN(C)C)c(C)c1-c1cccc2c(C[C@H](NC(=O)c3c(C)cccc3F)C(=O)O)cccc12 [Compound 558]			< 0.01	0.1 to 1
COc1ccc(CN2CCCCC2)c(OC)c1-c1cccc2c(C[C@H](NC(=O)c3c(F)cccc3-c3ccccc3)C(=O)O)cccc12 [Compound 648]			< 0.01	> 1
CN1CCC(Cc2ccc3ccnc(-c4cccc5c(C[C@H](NC(=O)C6(C(F)(F)F)CCN(CC(F)(F)F)CC6)C(=O)O)cccc45)c3c2)CC1 [Compound 990]	< 0.01	> 1		
COc1ccc(CN2CCN(CC(C)C)CC2)c(OC)c1-c1cccc2c(C[C@H](NC(=O)C3(C(F)(F)F)CCN(CC(F)(F)F)CC3)C(=O)O)cccc12 [Compound 805]	< 0.01	0.1 to 1		
COc1ccc(CN2CCCCC2)c(C(F)(F)F)c1-c1cccc2c(C[C@H](NC(=O)c3c(C)cccc3F)C(=O)O)cccc12 [Compound 562]			< 0.01	0.1 to 1
O=C(O)[C@H](Cc1cccc2c(-c3ncccc3CN3CCCCC3)cccc12)NC(=O)C1(C(F)(F)F)CCN(CC(F)(F)F)CC1 [Compound 793]	0.01 to 0.1	> 1		
O=C(O)[C@H](Cc1cccc2c(-c3ncc(CN4CCC5(CC4)CC5)c4ccccc34)cccc12)NC(=O)C1(C(F)(F)F)CCN(C2COC2)CC1 [Compound 694]	< 0.01	0.1 to 1		
COc1ccc(CN2CCCCC2C)c(OC)c1-c1cccc2c(C[C@H](NC(=O)c3c(C)cccc3F)C(=O)O)cccc12 (stereo partly drawn) [Compound 631]			< 0.01	0.1 to 1
COc1ccc(CCN2CCC(F)CC2)c(OC)c1-c1cccc2c(C[C@H](NC(=O)C3(C(F)(F)F)CCN(CC(F)(F)F)CC3)C(=O)O)cccc12 [Compound 966]	< 0.01	0.1 to 1		
COc1ccc2ccccc2c1-c1cccc2c(C[C@H](NC(=O)C3(C(F)(F)F)CCN(CC(F)(F)F)CC3)C(=O)O)cccc12 [Compound 765]	0.01 to 0.1	> 1		
O=C(O)[C@H](Cc1cccc2c(-c3ncc(CN4CCCCC4)c4ccccc34)cccc12)NC(=O)C1(C(F)(F)F)CCN([C@H]2COCC2(F)F)CC1 [Compound 680]			< 0.01	0.1 to 1
O=C(O)[C@H](Cc1cccc2c(-c3ncc(CN4CCCCC4)c4c3CCCC4)cccc12)NC(=O)C1(C(F)(F)F)CCN(CC(F)(F)F)CC1 [Compound 746]	< 0.01	> 1		
Cn1c(=O)c(-c2cccc3c(C[C@H](NC(=O)C4(C)CCCN(CC5COC5)C4)C(=O)O)cccc23)c(C(F)(F)F)c2ccccc21 (stereo partly drawn) [Compound 520]			0.1 to 1	> 1
COc1ccc(CN2C(C)CCCC2C)c(OC)c1-c1cccc2c(C[C@H](NC(=O)c3c(C)cccc3F)C(=O)O)cccc12 (stereo partly drawn) [Compound 632]			< 0.01	0.1 to 1
COc1ccc(CN2CCCCC2)nc1-c1cccc2c(C[C@H](NC(=O)C3(C(F)(F)F)CCN(CC(F)(F)F)CC3)C(=O)O)cccc12 [Compound 798]	< 0.01	> 1		
O=C(O)[C@H](Cc1cccc2c(-c3ncc(CN4CCC[C@@H](F)C4)c4ccccc34)cccc12)NC(=O)C1(C(F)(F)F)CCN(CC(F)(F)F)CC1 [Compound 855]	0.01 to 0.1	> 1		
O=C(O)[C@H](Cc1cccc2c(-c3nccc4c(CN5CCOCC5)cccc34)cccc12)NC(=O)C1(C(F)(F)F)CCN(CC(F)(F)F)CC1 [Compound 559]			< 0.01	> 1

Compound	IC50 (α4β7 integrin; [1]) [µM]	IC50 (α4β1 integrin; [2]) [µM]	IC50 (α4β7 integrin; [3]) [µM]	IC50 (α4β1 integrin; [4]) [µM]
COc1ccc(CN2CCC(F)(F)CC2)c(OC)c1-c1cccc2c(C[C@H](NC(=O)c3c(F)cccc3Cl)C(=O)O)cccc12 [Compound 605]			0.01 to 0.1	> 1
COc1c(CN2CCCCC2)ccc(C(F)(F)F)c1-c1cccc2c(C[C@H](NC(=O)C3(C(F)(F)F)CCN(CC(F)(F)F)CC3)C(=O)O)cccc12 [Compound 662]			0.01 to 0.1	> 1
CCc1c(CN(C)C)ccc(OC)c1-c1cccc2c(C[C@H](NC(=O)c3c(C)cccc3F)C(=O)O)cccc12 [Compound 1044]	< 0.01	0.1 to 1		
COc1ccc(CN2CCCCC2)cc1-c1cccc2c(C[C@H](NC(=O)c3c(C)cccc3F)C(=O)O)cccc12 [Compound 667]			0.01 to 0.1	> 1
CC1(C(=O)N[C@@H](Cc2cccc3c(-c4ncc(CN5CCCCC5)c5ccccc45)cccc23)C(=O)O)CC2CCC(C1)N2CC(F)F (stereo partly drawn) [Compound 684]			0.01 to 0.1	> 1
COc1cc(CN2CCCCC2)ccc1-c1cccc2c(C[C@H](NC(=O)c3c(C)cccc3F)C(=O)O)cccc12 [Compound 666]			0.01 to 0.1	> 1
O=C(O)[C@H](Cc1cccc2c(-c3ccc(CN4CCCCC4)cn3)cccc12)NC(=O)C1(C(F)(F)F)CCN(CC(F)F)CC1 [Compound 896]	0.01 to 0.1	> 1		
Cc1cc(CN2CCC(C(F)(F)F)CC2)cnc1-c1cccc2c(C[C@H](NC(=O)C3(C(F)(F)F)CCN(C4COC4)CC3)C(=O)O)cccc12 [Compound 900]	< 0.01	> 1		
COc1ccc(CN2CCC(F)CC2)c(OC)c1-c1cccc2c(C[C@H](NC(=O)c3c(C)cccc3F)C(=O)O)cccc12 [Compound 624]			< 0.01	0.1 to 1
CCOCc1cc(OC)c(-c2cccc3c(C[C@H](NC(=O)C4(C(F)(F)F)CCN(C5COC5)CC4)C(=O)O)cccc23)c(OC)c1 [Compound 498]			< 0.01	0.1 to 1
COc1ccc(CN2CCC3(CCCCC3)CC2)c(OC)c1-c1cccc2c(C[C@H](NC(=O)c3c(C)cccc3F)C(=O)O)cccc12 [Compound 654]			< 0.01	> 1
COc1cc(CN2CCCCC2)ccc1-c1cccc2c(C[C@H](NC(=O)C3(C(F)(F)F)CCN(CC(F)(F)F)CC3)C(=O)O)cccc12 [Compound 831]	< 0.01	> 1		
COc1cccc(CN2CC3CCC(C2)O3)c1-c1cccc2c(C[C@H](NC(=O)c3c(C)cccc3F)C(=O)O)cccc12 [Compound 1028]	0.01 to 0.1	> 1		
O=C(O)[C@H](Cc1cccc2c(-c3ncc(CN4CCOCC4)c4ccccc34)cccc12)NC(=O)C1(C(F)(F)F)CCN(CC(F)(F)F)CC1 [Compound 862]	< 0.01	> 1		
COc1ccc(CN2CCC(F)(F)CC2)c(OC)c1-c1cccc2c(C[C@H](NC(=O)C3(C(F)(F)F)CCN(CC(F)F)CC3)C(=O)O)cccc12 [Compound 946]	0.01 to 0.1	0.1 to 1		
CC1CCN(Cc2cnc(-c3cccc4c(C[C@H](NC(=O)C5(C(F)(F)F)CCN(CC(F)(F)F)CC5)C(=O)O)cccc34)c3ccccc23)CCC1(F)F (stereo partly drawn) [Compound 875]	0.01 to 0.1	> 1		
COc1ccc(CN2CCC(F)(F)CC2)c(OC)c1-c1cccc2c(C[C@H](NC(=O)C3(C(F)(F)F)CCN(C4COC4)CC3)C(=O)O)cccc12 [Compound 611]			< 0.01	> 1
O=C(O)[C@H](Cc1cccc2c(-c3nccc4ccc(CCCN5CCCCC5)cc34)cccc12)NC(=O)C1(C(F)(F)F)CCN(CC(F)F)CC1 [Compound 748]	< 0.01	> 1		
